From patent US11612583B2, “Disease modifying methods for treating neurodegenerative diseases using nootropic agents” (priority 2018, dated 2023)

Assays:
Format in all cases: cell-based, mouse
[1] = system: primary cortical neurons treated with rotenone; assay: Image-based analysis of mitochondrial content in dendrites (MAP2B/TOM20 immunostaining); settings: after rotenone 65 nM; Forskolin/NKH477 6.5 μM-8.5 μM or 250 μM dbt-cAMP; FIG. 4
From the text: The rotenone-treated neurons were also studied by image-based analyses of mitochondrial content in dendrites from primary cortical neurons immunostained for dendrites (MAP2B) and for mitochondria (TOM20).

[2] = system: primary cortical neurons treated with rotenone; assay: Dendrite length analysis (MAP2B immunostaining); settings: after rotenone 65 nM; Forskolin/NKH477 6.5 μM-8.5 μM or 250 μM dbt-cAMP; FIG. 5
[3] = system: primary cortical neurons treated with rotenone; assay: Extracellular acidification rates (ECARs), proxy for glycolysis, in rotenone-treated primary cortical neurons; settings: after rotenone 65 nM 24 hours, 6.5 μM-8.5 μM, FIG. 3
Protocol: Rotenone (1.26 mM stock, Sigma, Cat #R8875) was freshly prepared in water prior to each use. Stocks of rotenone were maintained in the dark at −20° C. for up to 6 months. […]
The extracellular acidification rates (ECARs), a proxy for glycolysis, were also assessed by using an XF24^e Extracellular Flux Analyzer in primary neurons.

[4] = system: primary cortical neurons treated with rotenone; assay: Oxygen consumption rates (XF24e Extracellular Flux Analyzer) in rotenone-treated primary cortical neurons; settings: after rotenone 65 nM 24 hours, 24 hrs
Protocol: Rotenone (1.26 mM stock, Sigma, Cat #R8875) was freshly prepared in water prior to each use. Stocks of rotenone were maintained in the dark at −20° C. for up to 6 months. Rotenone was used at 65 μM for neuroblastoma cells and at 65 nM for primary cortical neurons for 4-6 hours to induce oxidative and autophagic stress.
Forskolin (Coleus forskohlii, >98% HPLC, Sigma Aldrich) was prepared in DMSO as 5 mg/ml stocks (stable for up to 6 months if kept in the dark and stored in −20° C. until ready to use). On the day of the experiment, the forskolin aliquot was thawed and cells were treated once with forskolin at a concentration of 1 to up to 10 μM of forskolin in complete media for treating primary cortical neurons or for intraperitoneal administration of PINK1 knockout mice or PINK1 knockout rats.
Rotenone-treated primary neurons were then exposed to 250 μM dibutyryl cyclic AMP (dbt-cAMP) or with the parental or water-soluble form (NKH477) of Forskolin (6.5 μM-8.5 μM, 24 hrs). The basal oxygen consumption rates (OCRs), a proxy for mitochondrial function, were analyzed by using an XF24^e Extracellular Flux Analyzer (Agilent Technologies). The maximal oxygen consumption rates (OCRs), a proxy for maximal buffering capacity of mitochondrial function, were also analyzed by using an XF24^e Extracellular Flux Analyzer in primary cortical neurons treated with 1 μM FCCP, an ionophore that acts as a mitochondrial uncoupler.

[5] = system: primary cortical neurons; assay: Rotenone toxicity in primary cortical neurons; settings: 24 hours

| SMILES | mitochondrial content in dendrites (% of dendrites occupied by mitochondria) [1] | dendrite arbors (total dendrite length per neuron) [2] | glycolysis (baseline ECARs) [3] | spare respiratory capacity (Maximal OCRs-Baseline OCRs) ([4]; 6.5 μM-8.5 μM, 1 μM FCCP, FIG. 2) | baseline mitochondrial respiration (basal OCRs) ([4]; Forskolin or NKH477 6.5 μM-8.5 μM, FIG. 1) | LD50 concentration [5] |
| --- | --- | --- | --- | --- | --- | --- |
| CCCC(=O)Nc1ncnc2c1ncn2[C@@H]1O[C@@H]2COP(=O)(O)O[C@H]2[C@H]1OC(=O)CCC [dbt-cAMP, dibutyryl cyclic AMP] | reversed the loss of mitochondria within dendrites | reversed the loss of dendrites | – | – | – | – |
| C=C[C@@]1(C)CC(=O)[C@]2(O)[C@@]3(C)[C@@H](O)CCC(C)(C)[C@@H]3[C@H](OC(=O)CCN(C)C)[C@H](OC(C)=O)[C@@]2(C)O1.Cl [NKH477] | completely blocked | completely blocked | completely restored normal glycolytic function | completely restored | partially or completely restored | – |
| C=C(C)[C@H]1Cc2c(ccc3c2O[C@@H]2COc4cc(OC)c(OC)cc4[C@@H]2C3=O)O1 [rotenone, Rotenone] | – | – | – | – | – | 65 nM |
